Laboratory results taken from patent EP0154886A2, “Carboxyalkyl dipeptide derivatives, process for their preparation, agents containing them, and their use” (HOECHST AKTIENGESELLSCHAFT, priority 1984, dated 1985).

What was measured:
[1] = target: Angiotensin-Converting-Enzyme (ACE) (Homo sapiens, UniProt P12821); experiment: ACE inhibition in vitro assay (Biochem. Biophys. Acta, 206, 136 (1970)); assay type: biochemical
[2] = test system: durch intravenöse Gabe von 310 ng Angiotensin hervorgerufene Pressorreaktion; experiment: Inhibition of the angiotensin-induced pressor response in the anaesthetised rat after intraduodenal administration; assay type: in vivo, Ratte; conditions: narcotised rat
Procedure: Die erfindungsgemäßen Verbindungen der Formel I sind Hemmer des Angiotensin-Converting-Enzyme (ACE), das die Umwandlung von Angiotensin I in das pressorisch wirksame Angiotensin II katalysiert. […] Besonders interessant ist hierbei der langsame Wirkungseintritt und die lange Wirkdauer der Verbindung. So beobachtet man bei intraduodenaler Gabe von 0,3 mg/kg Körpergewicht eine Hemmung um 15 % nach 10 min, 30 % nach 20 min, 60 % nach 30 min und 70 % nach 45 min; die Wirkung hält länger als 6 Stunden an.

Sequence of Angiotensin-Converting-Enzyme (ACE) (P12821 30-1306, species assumed): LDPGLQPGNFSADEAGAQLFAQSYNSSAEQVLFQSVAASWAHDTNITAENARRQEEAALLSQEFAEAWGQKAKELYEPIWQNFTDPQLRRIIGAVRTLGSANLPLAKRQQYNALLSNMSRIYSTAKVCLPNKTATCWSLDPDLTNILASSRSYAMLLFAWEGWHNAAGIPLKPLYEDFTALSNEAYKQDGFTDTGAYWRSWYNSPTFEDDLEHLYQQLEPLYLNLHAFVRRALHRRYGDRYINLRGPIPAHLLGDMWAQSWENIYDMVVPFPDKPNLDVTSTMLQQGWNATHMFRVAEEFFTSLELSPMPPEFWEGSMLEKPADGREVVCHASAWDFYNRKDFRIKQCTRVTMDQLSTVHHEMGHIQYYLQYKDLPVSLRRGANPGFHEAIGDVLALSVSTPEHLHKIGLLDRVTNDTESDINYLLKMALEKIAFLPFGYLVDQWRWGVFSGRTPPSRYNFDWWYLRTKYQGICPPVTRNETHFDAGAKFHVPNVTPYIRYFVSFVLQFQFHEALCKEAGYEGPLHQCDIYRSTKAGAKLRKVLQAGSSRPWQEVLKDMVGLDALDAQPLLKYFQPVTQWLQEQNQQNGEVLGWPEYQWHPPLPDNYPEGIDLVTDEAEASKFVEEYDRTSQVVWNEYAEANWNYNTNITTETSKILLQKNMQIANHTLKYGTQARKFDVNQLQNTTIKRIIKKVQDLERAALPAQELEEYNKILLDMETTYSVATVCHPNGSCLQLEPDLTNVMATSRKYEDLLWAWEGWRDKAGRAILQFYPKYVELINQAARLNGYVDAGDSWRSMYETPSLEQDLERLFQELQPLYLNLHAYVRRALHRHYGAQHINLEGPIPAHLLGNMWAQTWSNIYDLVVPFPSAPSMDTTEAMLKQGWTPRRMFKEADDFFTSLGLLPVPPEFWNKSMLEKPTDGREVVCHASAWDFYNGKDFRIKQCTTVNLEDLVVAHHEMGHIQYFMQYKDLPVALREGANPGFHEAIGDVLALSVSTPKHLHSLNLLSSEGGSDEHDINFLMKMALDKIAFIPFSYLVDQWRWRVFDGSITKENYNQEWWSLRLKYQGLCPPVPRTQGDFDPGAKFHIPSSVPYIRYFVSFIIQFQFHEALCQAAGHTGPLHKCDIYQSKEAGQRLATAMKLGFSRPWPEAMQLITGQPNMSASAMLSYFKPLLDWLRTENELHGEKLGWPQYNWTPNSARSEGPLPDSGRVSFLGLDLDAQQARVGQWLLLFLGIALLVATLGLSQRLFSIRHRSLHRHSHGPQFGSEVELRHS

Work on `NCCCC[C@H](N[C@@H](CCC1CCCCC1)C(=O)O)C(=O)N1[C@H](C(=O)O)C[C@@H]2CCCC[C@@H]21` [N-(1-S-CarboxY-3-cyclohexyl-propyl)-S-lysyl-2S,3aS,7aS-octahydroindol-2-carbonsäure] yielded an IC50 [1] of 3.4 nM, a Hemmung ([2]; intraduodenal 0,3 mg/kg Körpergewicht, after 10 min) of 15% and a Hemmung ([2]; intraduodenal 0,3 mg/kg Körpergewicht, after 20 min) of 30%. For the same molecule, the Hemmung ([2]; intraduodenal 0,3 mg/kg Körpergewicht, after 30 min) was 60%, the Hemmung ([2]; intraduodenal 0,3 mg/kg Körpergewicht, after 45 min) was 70% and the “Wirkdauer (die Wirkung hält an)” value ([2]; intraduodenal 0,3 mg/kg Körpergewicht, duration of effect) was over 6 Stunden. The “Hemmwirkung auf die Pressorreaktion” value ([2]; intraduodenal administration, 310 ng Angiotensin i.v., qualitative) was “starke Hemmwirkung”.
